Results taken from US11072592B2, “Small molecules that enable cartilage rejuvenation” (The Regents of the University of California, priority 2015, dated 2021).
Entries after “also recorded” stand apart in the source; their conditions may differ.

Tests used:
[1] = system: adult pig articular cartilage explants; test: Proliferation (EdU) and marker expression in adult articular cartilage explants; format: cell-based
Method: FIGS. 26A-26J. LIF/STAT3/MYC signaling is prominent in fetal articular chondrocytes and can activate a fetal-like phenotype in adult cells. (FIG. 26A) Levels of phospho-STAT3 (pSTAT3) and MYC protein were quantitated in human fetal and adult articular chondrocytes relative to histone H3. (FIG. 26B) Effects of soluble LIF receptor (sLIFR) on MYC and pSTAT3 protein levels on fetal articular chondrocytes after 72 hours. (FIG. 26C) Detection of apoptotic cells using TUNEL staining and flow cytometry analysis of fetal articular cartilage explants cultured in the absence (control) or presence of a MYC (10058-F4) or STAT3 (STATTIC) inhibitor for 24 hours. (FIG. 26D) Quantification of proliferating cells via EdU incorporation in fetal articular cartilage explants and also by flow cytometry analysis for BrdU. Scale bars represent 100 μm. (FIG. 26E) Assessment of metabolic activity of human fetal articular chondrocytes cultured in the presence or absence of MYC or STAT3 inhibitors. (FIG. 26F) Migration capacity of fetal articular chondrocytes was assessed using a Transwell® assay in the absence or presence of MYC and STAT3 inhibitors. (FIG. 26G) Protein levels of MYC and pSTAT3 were measured in adult human articular chondrocytes with and without incubation with LIF. Data are shown normalized to histone H3. (FIG. 26H) Migratory capacity of adult human articular chondrocytes in a Transwell® assay measured in the presence or absence of LIF. (FIG. 26I) Single adult human articular chondrocytes were cultured with or without LIF for 5 weeks to allow detection of colony-forming cells. […]
FIGS. 28A-28I. […] (FIG. 28A) Adult human articular chondrocytes were incubated with or without RCGD 423 and levels of MYC and pSTAT3 were quantified relative to histone H3. (FIG. 28B) Levels of MYC and pSTAT3 protein were measured in pig adult articular chondrocytes to determine the effects of RCGD 423 in a dose- and time-dependent manner; histone H3 was used as a loading control. (FIG. 28C) Migration of adult human articular chondrocytes in a Transwell® assay was assessed in the presence and absence of RCGD 423. […]

[2] = system: MMP13, ADAMTS4 and ADAMTS5; test: Quantitative PCR of catabolic genes in adult pig articular chondrocytes; format: cell-based
Method: FIGS. 30A-30B. […] (FIG. 30A) Adult pig articular chondrocytes were cultured for 24 hours with the indicated cytokines or RCGD 423 and the levels of pSTAT3 and MYC were measured with respect to histone H3. Representative data for other proteins in the MAPK (p38 and MEK1/2), AKT (phospho-AKT; pAKT) or NF-KB (NF-KB p65) are also shown. (FIG. 30B) Levels of transcription of genes indicative of a catabolic response were determined via quantitative PCR in adult pig articular chondrocytes treated with OSM, IL-6, TNF-α, LIF or RCGD 423. Data are represented at mean±SD.
Cartilage degeneration is generally considered a feed-forward process, in which small losses of chondrocytes result in microenvironmental changes including induction of an inflammatory response and other pro-catabolic events (Hunziker, 2002). In turn, these alterations in the joint milieu promote production of matrix degrading proteins including MMPs (collagenases) and proteins of the ADAMTS family (aggrecanases). LIF has been implicated in promoting this cycle of matrix destruction during the pathogenesis of osteoarthritis (Hui et al., 2000; Lotz et al., 1992), although its role in this process has been controversial. In order to better understand the mechanism of action of LIF, RCGD 423 and known pro-inflammatory cytokines in the promotion of degeneration, we stimulated adult pig articular chondrocytes with these molecules and quantitated the levels of activated downstream proteins that mediate the cellular signaling response (FIG. 30A).
Total RNA was extracted using RNeasy Micro Kit (QIAGEN, Valencia, Calif.) according to the manufacturer's protocol. Quantitative reverse transcription PCR was performed using Bio-Rad T100 Thermal Cycler (Bio-Rad, Hercules, Calif.). Primer sequences are available upon request.

Row | Compound | proliferation of chondrocytes in adult cartilage explants (EdU) [1] | transcription of matrix degrading enzymes (MMP13, ADAMTS4 and ADAMTS5) [2] | expression of the stem/progenitor cell marker ALDH 1A1 in the surface layer ([1]; adult pig cartilage explants, LIF 50 ng/mL for 3 days)
1 | Brc1ccc(Nc2nc(-c3ccccc3)cs2)cc1 [RCGD 423, N-(4-Bromophenyl)-4-phenyl-1,3-thiazol-2-amine] | increased | no upregulation; also recorded: does not promote catabolism | 
2 | LIF: interleukin 6 (IL-6)-class cytokine | stimulated proliferation; also recorded: significantly increased | neither cytokine resulted in substantial transcriptional upregulation | increased expression
